From ChEMBL document CHEMBL1153461, “Inhibitory effects of flavonoids isolated from Fragaria ananassa Duch on IgE-mediated degranulation in rat basophilic leukemia RBL-2H3” (Bioorg Med Chem, 2009) come the findings set out here.

Assay [1] concerns the target Tyrosine-protein kinase SYK (Rattus norvegicus) (UniProt Q64725). Put plainly: Inhibition of Syk phosphorylation in DNP-BSA-stimulated rat RBL2H3 cells by Western blotting. The assay is classed as cell-based. The following applies: RBL-2H3. For orientation: Immunoblotting shows a protein as a band on a membrane.
Assay [2] has as its target T1, 1-phosphatidylinositol 4,5-bisphosphate phosphodiesterase gamma-2 (Rattus norvegicus) (UniProt P24135).
T1 sequence (whole entry): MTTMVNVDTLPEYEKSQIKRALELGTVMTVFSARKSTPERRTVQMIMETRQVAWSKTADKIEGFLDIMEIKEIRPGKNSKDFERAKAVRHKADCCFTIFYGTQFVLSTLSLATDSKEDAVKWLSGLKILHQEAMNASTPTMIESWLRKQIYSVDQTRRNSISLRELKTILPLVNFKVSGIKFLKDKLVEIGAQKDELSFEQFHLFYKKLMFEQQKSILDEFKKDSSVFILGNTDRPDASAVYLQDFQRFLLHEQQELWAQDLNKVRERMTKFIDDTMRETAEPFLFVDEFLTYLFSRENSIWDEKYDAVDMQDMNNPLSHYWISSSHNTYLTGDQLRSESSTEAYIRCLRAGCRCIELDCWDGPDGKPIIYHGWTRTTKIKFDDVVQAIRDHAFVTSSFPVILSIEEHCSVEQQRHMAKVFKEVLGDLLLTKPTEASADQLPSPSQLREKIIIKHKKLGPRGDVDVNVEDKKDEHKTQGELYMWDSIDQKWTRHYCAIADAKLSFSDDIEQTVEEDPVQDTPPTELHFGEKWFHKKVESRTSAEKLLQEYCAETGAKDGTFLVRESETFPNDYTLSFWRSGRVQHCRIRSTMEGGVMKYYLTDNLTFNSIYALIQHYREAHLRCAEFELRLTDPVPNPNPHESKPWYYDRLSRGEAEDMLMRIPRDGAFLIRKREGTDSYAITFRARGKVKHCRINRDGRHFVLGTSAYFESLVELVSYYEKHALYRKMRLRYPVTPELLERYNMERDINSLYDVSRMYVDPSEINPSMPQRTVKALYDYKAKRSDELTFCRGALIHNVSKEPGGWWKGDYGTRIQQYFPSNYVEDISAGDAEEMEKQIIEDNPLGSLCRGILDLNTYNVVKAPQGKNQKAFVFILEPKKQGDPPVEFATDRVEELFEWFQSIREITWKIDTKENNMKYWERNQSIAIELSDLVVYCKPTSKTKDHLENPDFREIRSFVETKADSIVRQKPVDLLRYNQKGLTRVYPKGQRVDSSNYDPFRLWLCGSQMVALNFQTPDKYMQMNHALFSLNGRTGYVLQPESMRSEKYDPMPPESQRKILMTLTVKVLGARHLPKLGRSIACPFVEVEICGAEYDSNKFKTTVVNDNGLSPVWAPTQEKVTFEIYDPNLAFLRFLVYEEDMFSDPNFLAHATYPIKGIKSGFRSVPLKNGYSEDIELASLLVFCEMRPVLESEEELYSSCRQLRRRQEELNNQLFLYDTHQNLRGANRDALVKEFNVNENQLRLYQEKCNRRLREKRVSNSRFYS
Put plainly: Inhibition of PLCgamma2 phosphorylation in DNP-BSA-stimulated rat RBL2H3 cells by Western blotting. The following applies: RBL-2H3. The assay is classed as cell-based.

Assay [3] concerns the target T2, 1-phosphatidylinositol 4,5-bisphosphate phosphodiesterase gamma-1 (Rattus norvegicus) (UniProt P10686).
T2 sequence (whole entry): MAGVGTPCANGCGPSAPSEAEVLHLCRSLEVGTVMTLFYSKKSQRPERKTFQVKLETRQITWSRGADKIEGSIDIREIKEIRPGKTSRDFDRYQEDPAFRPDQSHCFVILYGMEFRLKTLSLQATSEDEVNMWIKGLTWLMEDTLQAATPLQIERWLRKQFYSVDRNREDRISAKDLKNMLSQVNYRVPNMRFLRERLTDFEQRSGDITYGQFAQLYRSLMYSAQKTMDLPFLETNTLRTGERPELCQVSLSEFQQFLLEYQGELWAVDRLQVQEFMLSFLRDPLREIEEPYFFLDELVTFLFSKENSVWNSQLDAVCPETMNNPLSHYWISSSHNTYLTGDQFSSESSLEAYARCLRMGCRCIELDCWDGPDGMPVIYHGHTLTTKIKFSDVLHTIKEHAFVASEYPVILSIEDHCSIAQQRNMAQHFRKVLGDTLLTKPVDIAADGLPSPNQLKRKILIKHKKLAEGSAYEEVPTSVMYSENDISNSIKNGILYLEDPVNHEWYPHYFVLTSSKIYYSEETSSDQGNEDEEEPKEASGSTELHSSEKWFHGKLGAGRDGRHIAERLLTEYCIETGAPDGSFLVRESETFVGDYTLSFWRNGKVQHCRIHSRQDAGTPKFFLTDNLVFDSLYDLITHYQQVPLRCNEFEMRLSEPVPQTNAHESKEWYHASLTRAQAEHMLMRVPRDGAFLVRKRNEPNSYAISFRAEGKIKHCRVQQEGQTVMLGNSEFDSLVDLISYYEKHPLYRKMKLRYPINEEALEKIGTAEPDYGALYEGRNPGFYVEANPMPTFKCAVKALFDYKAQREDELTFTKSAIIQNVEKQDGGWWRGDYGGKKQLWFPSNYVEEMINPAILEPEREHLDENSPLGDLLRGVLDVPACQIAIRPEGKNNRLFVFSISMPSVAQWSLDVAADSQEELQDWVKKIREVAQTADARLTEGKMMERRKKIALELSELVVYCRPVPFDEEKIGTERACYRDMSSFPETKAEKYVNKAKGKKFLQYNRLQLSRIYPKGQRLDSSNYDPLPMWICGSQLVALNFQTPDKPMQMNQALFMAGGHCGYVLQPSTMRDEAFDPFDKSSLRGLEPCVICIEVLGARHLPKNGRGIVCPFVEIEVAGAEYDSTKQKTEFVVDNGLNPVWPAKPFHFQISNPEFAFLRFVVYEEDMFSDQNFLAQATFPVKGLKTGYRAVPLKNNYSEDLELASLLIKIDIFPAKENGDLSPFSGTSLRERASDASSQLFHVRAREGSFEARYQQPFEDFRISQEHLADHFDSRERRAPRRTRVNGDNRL
Put plainly: Inhibition of PLCgamma1 phosphorylation in DNP-BSA-stimulated rat RBL2H3 cells by Western blotting. The assay is classed as cell-based. The following applies: RBL-2H3.

For assay [4], the system named is Radical scavenging activity. Description: Antioxidant activity assessed as radical DPPH scavenging activity. It counts as functional. For orientation: The DPPH test is a chemical assay of radical scavenging.
Assay [5] deals with RBL-2H3. Put plainly: Inhibition of ERK in DNP-BSA-stimulated rat RBL2H3 cells assessed as reduction in cPLA2 phosphorylation by Western blotting. It counts as cell-based.
Assay [6] deals with RBL-2H3. Put plainly: Inhibition of ERK phosphorylation in DNP-BSA-stimulated rat RBL2H3 cells by Western blotting. The assay is classed as cell-based.
The test system of assay [7] is RBL-2H3. Put plainly: Antiallergic activity in IgE-sensitized rat RBL2H3 cells assessed as inhibition of DNP-BSA-stimulated beta hexaminidase release relative to control. The assay is classed as functional, cell-based.
Assay [8] has as its system RBL-2H3. Put plainly: Antioxidant activity in IgE-sensitized rat RBL2H3 cells assessed as reduction in DNP-BSA-mediated intracellular ROS production at 50 uM after 30 mins by fluorimetry. The assay is classed as functional, cell-based.
For assay [9], the system named is RBL-2H3. Put plainly: Antiallergic activity in IgE-sensitized DNP-BSA-stimulated rat RBL2H3 cells assessed as decrease in intracellular Ca2+ level by fluorimetry. The assay is classed as functional, cell-based.
The subject of assay [10] is RBL-2H3. Put plainly: Inhibition of p38 phosphorylation in DNP-BSA-stimulated rat RBL2H3 cells by Western blotting. The assay is classed as cell-based.
Assay [11] has as its system RBL-2H3. Description: Inhibition of JNK phosphorylation in DNP-BSA-stimulated rat RBL2H3 cells by Western blotting. It counts as cell-based.
For assay [12], the system named is RBL-2H3. Description: Antiallergic activity in IgE-sensitized rat RBL2H3 cells assessed as inhibition of A-23187-stimulated beta hexaminidase release relative to control. The assay is classed as functional, cell-based.

The source made the active and inactive calls. The rule behind the calls is not given here.

Tyrosine-protein kinase SYK (Rattus norvegicus), sequence (Q64725 whole entry, looked up): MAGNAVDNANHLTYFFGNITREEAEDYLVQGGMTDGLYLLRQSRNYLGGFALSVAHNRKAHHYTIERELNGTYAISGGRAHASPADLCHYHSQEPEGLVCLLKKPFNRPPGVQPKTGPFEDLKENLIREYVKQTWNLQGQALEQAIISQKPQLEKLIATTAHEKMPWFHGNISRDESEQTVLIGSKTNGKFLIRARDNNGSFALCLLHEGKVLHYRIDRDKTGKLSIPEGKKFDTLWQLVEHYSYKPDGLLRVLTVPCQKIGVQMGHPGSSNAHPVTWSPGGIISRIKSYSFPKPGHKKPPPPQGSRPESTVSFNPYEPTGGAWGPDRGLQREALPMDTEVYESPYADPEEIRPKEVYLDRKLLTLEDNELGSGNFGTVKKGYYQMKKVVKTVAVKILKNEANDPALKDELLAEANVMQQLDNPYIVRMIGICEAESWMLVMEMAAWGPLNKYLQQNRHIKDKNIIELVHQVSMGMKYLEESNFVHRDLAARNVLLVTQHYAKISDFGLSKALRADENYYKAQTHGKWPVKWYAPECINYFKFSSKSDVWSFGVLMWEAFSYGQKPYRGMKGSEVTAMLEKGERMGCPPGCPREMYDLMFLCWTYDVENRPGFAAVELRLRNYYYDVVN

In the case of `O=C(O[C@@H]1Cc2c(O)cc(O)cc2O[C@@H]1c1cc(O)c(O)c(O)c1)c1cc(O)c(O)c(O)c1`, the result in assay [1], in [2] and in [3] was inactive. Also, the ED50 in assay [4] came to 7 µM.
In the case of `O=C(/C=C/c1ccc(O)cc1)OC[C@H]1O[C@@H](Oc2c(-c3ccc(O)cc3)oc3cc(O)cc(O)c3c2=O)[C@H](O)[C@@H](O)[C@@H]1O`, the result in assay [1], in assay [2] and in assay [3] was inactive. The outcome in [5], in assay [6], in assay [8], in assay [9], in [10] and in [11] was Active. For the same molecule, the outcome in [12] was Active. Moreover, the inhibition result in [7] was “Active”. The ED50 in [4] was less than 100 µM.
`O=C1O[C@H]([C@@H](O)CO)C(O)=C1O`: the ED50 in assay [4] came to 18 µM.
On the same count and under the same terms, for VITAMIN E the value was 78 µM.
On to `O=C(/C=C/c1ccccc1)Oc1cc(O)c2c(=O)cc(-c3ccccc3)oc2c1`, for which the outcome in [1], in assay [2] and in assay [3] was inactive. Further, the result in [5], in assay [6], in [8], in [9], in assay [10] and in assay [11] was Active. Also, the result in [12] was Active. Moreover, the inhibition result in [7] was “Active”. For the same molecule, in [4], the ED50 was less than 100 µM.
`O=c1c(O)c(-c2ccc(O)cc2)oc2cc(O)cc(O)c12`: the result in [1], in assay [5], in [6], in assay [2], in [3] and in assay [9] was Active. In addition, the outcome in assay [10], in assay [11] and in assay [12] was Active. Further, the inhibition entry in assay [7] was “Active”. Moreover, the ED50 in [4] is less than 100 µM.
As for `O=c1cc(-c2ccccc2)oc2cc(O)cc(O)c12`, the outcome in assay [1], in assay [6], in assay [2], in assay [3], in assay [10] and in assay [11] was inactive. Further, in assay [7], the inhibition entry was “Active”. In addition, the result in assay [9] and in assay [12] was Active. In addition, in assay [4], the ED50 is less than 100 µM.
